This is an account of results in patent US20250243194A1, “ANTAGONIST OF ADENOSINE RECEPTORS” (AdoRx Therapeutics Limited, priority 2022, published 2025).

Structures are written as SMILES.

The target in test [1] is human Adenosine A1 receptor (Homo sapiens (Human), UniProt P30542). As to the kind of experiment: Adenosine receptor TR-FRET binding assay (A1). Particulars: inhibition of binding of 100 nM CA200645; CHO cell membranes; Ki from IC50 by Cheng and Prusoff. An outline of the steps:
(§1)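 Compounds incubated 2 h at room temperature with membranes from CHO cells expressing terbium-labelled human receptors, competing with the fluorescent antagonist CA200645 (30 nM for A2b; 100 nM for A1, A2a and A3). Read by TR-FRET (665/620 nm); non-specific binding defined with 10 μM XAC. Ki derived from IC50 via Cheng-Prusoff.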
On the technique in general: In TR-FRET formats the signal depends on donor and acceptor labels being close together.

For test [2], the system named is CD8+ T cells in human whole blood. As to the kind of experiment: Measurement of pCREB in CD8+ T cells in human whole blood. The class given is cell-based. Particulars: T-cell, 3 μM NECA, rolipram, FACS. An outline of the steps: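 Heparinised human whole blood preincubated 20 min at 37 °C with serially diluted A2a antagonists plus rolipram, then stimulated 60 min with 3 μM NECA (final). After fixation and RBC lysis, permeabilized leukocytes stained for phospho-CREB and CD8; pCREB in CD8+ T cells read by flow cytometry.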

Test [3] deals with human PBMCs. As to the kind of experiment: CD3/CD28 stimulated IL-2 release NECA reversal assay in human PBMCs. The class given is cell-based. Particulars: PBMC, reversal of 1 uM NECA, 24 hours. The procedure:
Blood is drawn from healthy volunteers using sodium citrate as the anticoagulant (0.3% final concentration). After centrifugation of the blood over Histopaque-1077, PBMCs are collected from the Histopaque/plasma interface and washed twice in PBS (300 g for 10 mins at room temp). Cells are plated at 50,000 cells/well in 150 μl RPMI/10% FCS in 96-well cell culture plates that have been precoated with 1 μg/ml CD3 antibody. 50 μl diluted compound mix is added to the cells, to obtain final concentrations of 1 μg/ml CD28 antibody, 1 uM NECA and 0.003-10 μM adenosine receptor antagonist. Assay plates are incubated for 24 hours at 37° C. in a humidified incubator. Culture supernatant is tested for IL-2 levels using the human IL-2 Tissue Culture Kit (Meso Scale Discovery).

Test [4] has as its target human Adenosine A2b receptor (Homo sapiens (Human), UniProt P29275). As to the kind of experiment: Adenosine receptor TR-FRET binding assay (A2b). The settings on record: inhibition of binding of 30 nM CA200645; CHO cell membranes; Ki from IC50 by Cheng and Prusoff. An outline of the steps:
as §1

Test [5] concerns immature monocyte-derived dendritic cells (MoDC). As to the kind of experiment: MoDC pCREB assay. The class given is cell-based. The settings on record: Homo sapiens, Dendritic cell, CD209+/CD86-low cells, 1 μM NECA, 20 μM rolipram, largely specific to A2B. The method, then:
Monocytes are isolated from human whole blood using CD14 microbeads (Miltenyi Biotec 130-050-201) and differentiated to immature monocyte-derived dendritic cells (MoDC) by culture for 5 days in Mo-DC Differentiation Medium (Miltenyi Biotec 130-094-812). MoDCs are seeded into fresh medium into U bottomed 96 well culture plates and pre-incubated at 37° C. with serial dilutions of A2A/B antagonists for 15 min. At the same time the cells are co-incubated with the phosphodiesterase inhibitor rolipram (final concentration of 20 μM) to amplify the subsequent pCREB response. Adenosine receptor agonist NECA is then added at 1 μM final concentration, leading to an increase in CREB phosphorylation. Following a 45 min incubation at 37° C., the cells are fixed, permeabilized and stained with directly conjugated fluorescent antibodies to phospho-CREB (Alexa Fluor 488), CD209 (PerCP-Cy5.5) and CD86 (APC). Samples are analysed by FACS to measure fluorescence in corresponding channels, and also forward and Side scatter. The population of CD209+/CD86-low cells corresponding to immature dendritic cells is gated for analysis of pCREB levels.
Approximately 5% of the analysed cells are positive for detection of pCREB in the absence of agonist stimulation, representing the background signalling of all pathways upstream of CREB. Following NECA stimulation this is increased to ˜80% pCREB+ve, and this increase is essentially fully reversible by A2B or dual A2A/B antagonists.
IC50 is represented as the point of inflection of a sigmoidal curve

In test [6] the target is human Adenosine A2a receptor (Homo sapiens (Human), UniProt P29274). As to the kind of experiment: Adenosine receptor TR-FRET binding assay (A2a). Particulars: inhibition of binding of 100 nM CA200645; CHO cell membranes; Ki from IC50 by Cheng and Prusoff. In outline: as §1
human Adenosine A2a receptor, sequence (P29274 whole entry): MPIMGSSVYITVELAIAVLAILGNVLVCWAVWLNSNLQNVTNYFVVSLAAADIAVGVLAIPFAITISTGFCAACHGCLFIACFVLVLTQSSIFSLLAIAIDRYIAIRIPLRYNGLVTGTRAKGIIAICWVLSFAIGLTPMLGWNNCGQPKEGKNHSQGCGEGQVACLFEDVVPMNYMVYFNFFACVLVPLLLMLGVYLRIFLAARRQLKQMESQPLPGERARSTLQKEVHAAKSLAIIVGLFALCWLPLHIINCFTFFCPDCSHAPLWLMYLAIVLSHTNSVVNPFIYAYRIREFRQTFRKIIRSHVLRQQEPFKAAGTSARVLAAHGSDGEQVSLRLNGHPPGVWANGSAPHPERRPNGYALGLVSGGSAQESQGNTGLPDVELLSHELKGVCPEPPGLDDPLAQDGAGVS

human Adenosine A2b receptor, sequence (P29275 whole entry): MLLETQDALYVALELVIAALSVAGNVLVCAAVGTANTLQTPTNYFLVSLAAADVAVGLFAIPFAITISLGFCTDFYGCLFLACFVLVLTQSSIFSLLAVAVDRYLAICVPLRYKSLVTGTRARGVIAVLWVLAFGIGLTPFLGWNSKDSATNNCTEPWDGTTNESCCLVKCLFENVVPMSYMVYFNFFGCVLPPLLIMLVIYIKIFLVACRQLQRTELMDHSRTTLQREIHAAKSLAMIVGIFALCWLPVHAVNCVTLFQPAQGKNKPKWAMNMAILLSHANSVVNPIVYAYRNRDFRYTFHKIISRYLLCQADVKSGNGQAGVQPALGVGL
human Adenosine A1 receptor, sequence (P30542 whole entry): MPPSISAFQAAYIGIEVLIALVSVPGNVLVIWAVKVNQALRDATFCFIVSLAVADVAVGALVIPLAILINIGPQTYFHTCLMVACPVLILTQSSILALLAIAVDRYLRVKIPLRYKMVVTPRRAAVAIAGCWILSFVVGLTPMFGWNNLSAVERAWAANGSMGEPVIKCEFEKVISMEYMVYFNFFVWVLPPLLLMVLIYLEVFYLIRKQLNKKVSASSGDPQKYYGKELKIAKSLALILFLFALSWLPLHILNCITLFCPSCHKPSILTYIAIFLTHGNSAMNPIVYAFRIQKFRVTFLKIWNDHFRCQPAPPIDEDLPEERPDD

For `Cc1ncnc2ccc(-c3sc(NC(=O)N4CCC5(CC4)CN(C)C(=O)O5)nc3-c3cccc(C#N)c3)cc12` [Example 7.26, N-[4-(3-Cyanophenyl)-5-(4-methylquinazolin-6-yl)thiazol-2-yl]-3-methyl-2-oxo-1-oxa-3,8-diazaspiro[4.5]decane-8-carboxamide], the Ki (as a rule, the dissociation constant of the complex between target and ligand, obtained from inhibition or displacement) in test [1] worked out at 19 nM; in test [4], 1.8 nM; in test [6], 0.13 nM. Besides, the IC50 (as a rule, the concentration needed to halve the response being measured) in test [2] is 15 nM; in test [3], 0.5 nM; in test [5], 2 nM.
On to `Cc1ncnc2ccc(-c3sc(NC(=O)N4CCN(C5COC5)CC4)nc3-c3cccc(C#N)c3)cc12` [Example 7.28, N-[4-(3-Cyanophenyl)-5-(4-methylquinazolin-6-yl)thiazol-2-yl]-4-(oxetan-3-yl)piperazine-1-carboxamide], for which the Ki in test [1] stood at 65 nM; in test [4] it was 3.3 nM; in test [6] it was 0.64 nM. Further, the IC50 in test [2] came to 22 nM; in test [3], 0.9 nM; in test [5], 5 nM.
`Cc1ncnc2c(C)cc(-c3sc(NC(=O)N4CC5(COC5)C4)nc3-c3cccc(C#N)c3)cc12` [Example 20, N-[4-(3-Cyanophenyl)-5-(4,8-dimethylquinazolin-6-yl)thiazol-2-yl]-2-oxa-6-azaspiro[3.3]heptane-6-carboxamide]: the Ki is 8 nM in test [1], 1 nM in test [4] and 0.18 nM in test [6]. Also, the 50% inhibitory concentration (IC50) is 105 nM in test [2], 0.8 nM in test [3] and 3 nM in test [5].
